# Literature values in PubChem BioAssay AID1259409 (Chemical Carcinogenesis Research Information System (CCRIS), 2018).
# “And” between values parts separate entries of the source, which are not always exact repeats. Equal entries are not always repeated.
# Test system: rodent chemically induced tumor inhibition, incidence and multiplicity
# Test: CCRIS tumor inhibitor studies
# Details: Species: RAT, Promoter: NONE USED
structure (smiles),measurement,setting,value
CN1C(C(=O)Nc2ccccn2)=C(O)c2ccccc2S1(=O)=O,"tumour outcome (control, treated, inhibition, significance)","Carcinogen: AZOXYMETHANE, 25843-45-2, Dose [Inhibitor]: 0, 400 PPM IN DIET BEGINNING 1 WK PRIOR TO CARCINOGEN TREATMENT FOR DURATION OF STUDY (STUDY DURATION: 54 WK), Route [Inhibitor]: ORAL, Strain/Sex: F344/MALE, Target Tissue: Type of Lesion: COLON: ADENOCARCINOMA, Dose [Carcinogen]: 15 MG/KG/BW 1/WK FOR 2 WK","58%, 19%, 67%, p<0.01"
same,"tumour outcome (control, treated, inhibition, significance)","Carcinogen: AZOXYMETHANE, 25843-45-2, Dose [Inhibitor]: 0, 400 PPM IN DIET BEGINNING 1 WK PRIOR TO CARCINOGEN TREATMENT FOR DURATION OF STUDY (STUDY DURATION: 54 WK), Route [Inhibitor]: ORAL, Strain/Sex: F344/MALE, Target Tissue: Type of Lesion: COLON: ADENOMA, Dose [Carcinogen]: 15 MG/KG/BW 1/WK FOR 2 WK","6%, 3%, 50%, not calculated"
same,"tumour outcome (control, treated, inhibition, significance)","Carcinogen: AZOXYMETHANE, 25843-45-2, Dose [Inhibitor]: 0, 400 PPM IN DIET BEGINNING PRIOR TO CARCINOGEN DOSE AND CONTINUING FOR DURATION OF STUDY (STUDY DURATION: 54 WK), Route [Inhibitor]: ORAL, Strain/Sex: F344/MALE, Target Tissue: Type of Lesion: COLON: ADENOCARCINOMA, Dose [Carcinogen]: 15 MG/KG 1/WK FOR 2 WK","72%, 22%, 69%, p<0.001"
same,"tumour outcome (control, treated, inhibition, significance)","Carcinogen: AZOXYMETHANE, 25843-45-2, Dose [Inhibitor]: 0, 400 PPM IN DIET BEGINNING PRIOR TO CARCINOGEN DOSE AND CONTINUING FOR DURATION OF STUDY (STUDY DURATION: 54 WK), Route [Inhibitor]: ORAL, Strain/Sex: F344/MALE, Target Tissue: Type of Lesion: COLON: ADENOMA, Dose [Carcinogen]: 15 MG/KG 1/WK FOR 2 WK","14%, 6%, 57%, not calculated"
same,"tumour outcome (control, treated, inhibition, significance)","Carcinogen: AZOXYMETHANE, 25843-45-2, Dose [Inhibitor]: 0, 400 PPM IN DIET BEGINNING PRIOR TO CARCINOGEN DOSE AND CONTINUING FOR DURATION OF STUDY (STUDY DURATION: 54 WK), Route [Inhibitor]: ORAL, Strain/Sex: F344/MALE, Target Tissue: Type of Lesion: SMALL INTESTINE: ADENOCARCINOMA, Dose [Carcinogen]: 15 MG/KG 1/WK FOR 2 WK","50%, 8%, 84%, p<0.001"
same,"tumour outcome (control, treated, inhibition, significance)","Carcinogen: AZOXYMETHANE, 25843-45-2, Dose [Inhibitor]: 0, 400 PPM IN DIET BEGINNING PRIOR TO CARCINOGEN DOSE AND CONTINUING FOR DURATION OF STUDY (STUDY DURATION: 54 WK), Route [Inhibitor]: ORAL, Strain/Sex: F344/MALE, Target Tissue: Type of Lesion: SMALL INTESTINE: ADENOMA, Dose [Carcinogen]: 15 MG/KG 1/WK FOR 2 WK","3%, 0%, 100%, not calculated"
same,"tumour outcome (control, treated, inhibition, significance)","Carcinogen: AZOXYMETHANE, 25843-45-2, Dose [Inhibitor]: 0, 400 PPM IN DIET FOR 56 WK BEGINNING 2 WK PRIOR TO CARCINOGEN TREATMENT (STUDY DURATION: 56 WK), Route [Inhibitor]: ORAL, Strain/Sex: F344/MALE, Target Tissue: Type of Lesion: COLON(DISTAL): TUMOR, Dose [Carcinogen]: 15 MG/KG 1/WK FOR 2 WK","52%, 22%, 58%, p<0.05"
same,"tumour outcome (control, treated, inhibition, significance)","Carcinogen: AZOXYMETHANE, 25843-45-2, Dose [Inhibitor]: 0, 400 PPM IN DIET FOR 56 WK BEGINNING 2 WK PRIOR TO CARCINOGEN TREATMENT (STUDY DURATION: 56 WK), Route [Inhibitor]: ORAL, Strain/Sex: F344/MALE, Target Tissue: Type of Lesion: COLON(PROXIMAL): TUMOR, Dose [Carcinogen]: 15 MG/KG 1/WK FOR 2 WK","38%, 7%, 82%, p<0.001"
same,"tumour outcome (control, treated, inhibition, significance)","Carcinogen: AZOXYMETHANE, 25843-45-2, Dose [Inhibitor]: 0, 400 PPM IN DIET FOR 56 WK BEGINNING 2 WK PRIOR TO CARCINOGEN TREATMENT (STUDY DURATION: 56 WK), Route [Inhibitor]: ORAL, Strain/Sex: F344/MALE, Target Tissue: Type of Lesion: SMALL INTESTINE(DISTAL): TUMOR, Dose [Carcinogen]: 15 MG/KG 1/WK FOR 2 WK","12%, 9%, 25%, not significant"
same,"tumour outcome (control, treated, inhibition, significance)","Carcinogen: AZOXYMETHANE, 25843-45-2, Dose [Inhibitor]: 0, 400 PPM IN DIET FOR 56 WK BEGINNING 2 WK PRIOR TO CARCINOGEN TREATMENT (STUDY DURATION: 56 WK), Route [Inhibitor]: ORAL, Strain/Sex: F344/MALE, Target Tissue: Type of Lesion: SMALL INTESTINE(PROXIMAL): TUMOR, Dose [Carcinogen]: 15 MG/KG 1/WK FOR 2 WK","33%, 9%, 73%, p<0.05"
same,"tumour outcome (control, treated, inhibition, significance)","Carcinogen: INTRARECTAL, Dose [Inhibitor]: N-METHYLNITROSOUREA, 684-93-5, Route [Inhibitor]: 0, 130 MG/KG VEGETABLE DIET (2.5 MG/D) BEGINNING 7 D POST LAST CARCINOGEN TREATMENT AND CONTINUING FOR STUDY DURATION (S, Strain/Sex: CD-1/MALE, Target Tissue: Type of Lesion: INTESTINE: TUMOR","9/9 (100%), 5/10 (50%), 50%, not calculated"
same,"tumour outcome (control, treated, inhibition, significance)","Carcinogen: METHYLAZOXYMETHANOL, 590-96-5, Dose [Inhibitor]: 8 MG/KG BW/D IN DIET FOR 19 WK STARTING 7 D AFTER CARCINOGEN TREATMENT AND CONTINUING FOR DURATION OF STUDY (STUDY DURAT, Route [Inhibitor]: ORAL, Strain/Sex: SPRAGUE-DAWLEY/MALE, Target Tissue: Type of Lesion: INTESTINES: TUMOR, Dose [Carcinogen]: 30 MG/KG BW ONCE","9/9 (100%), 4/10 (40%), 60%, not calculated"
same,"tumour outcome (control, treated, inhibition, significance)","Carcinogen: METHYLAZOXYMETHANOL, 590-96-5, Dose [Inhibitor]: 8.25 MG/KG BW/D IN DIET FOR 19 WK STARTING 7 D AFTER CARCINOGEN TREATMENT AND CONTINUING FOR DURATION OF STUDY (STUDY DU, Route [Inhibitor]: ORAL, Strain/Sex: SPRAGUE-DAWLEY/MALE, Target Tissue: Type of Lesion: INTESTINES: TUMOR, Dose [Carcinogen]: 30 MG/KG BW ONCE","9/10 (90%), 2/10 (20%), 78%, not calculated and 9/10 (90%), 7/11 (64%), 29%, not calculated"
same,"tumour outcome (control, treated, inhibition, significance)","Carcinogen: METHYLAZOXYMETHANOL, 590-96-5, Dose [Inhibitor]: 12.5 MG/KG BW/D IN DIET FOR 19 WK STARTING 7 D AFTER CARCINOGEN TREATMENT AND CONTINUING FOR DURATION OF STUDY (STUDY DU, Route [Inhibitor]: ORAL, Strain/Sex: SPRAGUE-DAWLEY/MALE, Target Tissue: Type of Lesion: INTESTINES: TUMOR, Dose [Carcinogen]: 30 MG/KG BW ONCE","8/9 (88%), 3/9 (33%), 63%, not calculated"
